Legend:
Type in all cases: cell-based
HIV-1 [1] = assay: PBL assay (P24 capsid antigen ELISA in human peripheral blood lymphocytes); conditions: human PBL's stimulated with IL2 and PHA, P24 ELISA after 4 days incubation at 37°C, several values per cell
Protocol: HIV assays were carried out in human peripheral blood lymphocytes (PBL's) prepared by fractionation of fresh human […] on Ficoll gradients as described by Hartmann H. et al. Aids Research and Human Retroviruses, 1988, 4 457-466. The isolated PBL's were stimulated with growth factors IL2 and PHA for 3 days before infection with HIV. Growth of virus was monitored, after 4 days incubation at 37°C, by quantitative ELISA assays of the capsid antigen, P24. A range of concentrations of compound of known molarity was incorporated into the medium. Yield of P24 at each concentration are expressed as a percentage of the control and a dose response curve is drawn. From this curve the 50% inhibitory concentration (IC50) is estimated.

HIV-1 [2] = assay: Antiviral MT4 assay (reversal of HIV cytopathic effect, MTT uptake); conditions: MTT uptake at fifth day post infection, several values per cell, read-out: IC50 vs HIV-1 (μM) MT-4 (converted)
Protocol: Antiviral activity against the Human Immunodeficiency Virus (HIV) was determined according to the method of Pauwels et al, J.Virol.Methods, 1988 20 309-321 by measuring the ability of the compound to reverse the cytopathic effect of HIV infection. This was determined by a quantitative assessment of cell growth monitored at the fifth day post infection by a tetrazolium dye (MTT) uptake test. Subconfluent (20-40,000 cells/well) human T lymphocyte cell line MT4 cells infected with HIV were grown in 96-well microtiter dishes and exposed to different dilutions of drug. After 5 days, the dye intake test was performed on drug treated cultures and on HIV infected and mock infected MT4 cells. Under the conditions of the test, HIV infection caused extensive cytopathic effect and prevented cell growth by >80%. The antiviral effect of a drug is reported as an IC-50, i.e. as the inhibitory concentration that would protect 50% of the cells from cell killing, measured as 50% of that cell growth determined for uninfected MT4 cell controls.

[3] = Cell toxicity, cell growth inhibition assay (MTT uptake); conditions: CCID-50: 50% inhibition of cell viability at 5 days; uninfected MT4 cells or vero cells (not stated which); read-out: TOX
Protocol: Cell toxicity was assessed in a cell growth inhibition assay on uninfected MT4 cells or on vero cells in a 96-well microtiter dish. Identical cell numbers of uninfected cells were exposed to different dilutions of drug and cell viability determined daily on replicate cultures using uptake of MTT. The concentration required for a 50% inhibition of cell viability at 5 days is termed CCID-50.

HIV-1 [4] = assay: HeLa-CD4+ cell assay (plaque reduction in HT4-6C cell monolayers); conditions: Human immunodeficiency virus 1, plaque reduction after 2-3 days, method calls the value ID50
Protocol: Susceptibility of HIV to inhibitors was determined by infection of HT4-6C cell monolayers as described by Larder, B.A., Chesebro, B. & Richman, D.D. Antimicrob. Agents Chemother. 1990 34, 436-441. Briefly cells were seeded in 24-well multiwells at 5x10⁴ cells per well and incubated overnight at 37°C in growth medium (DMEM10). Monolayers were infected with 100-200pfu of cell-free virus in 0.2ml of DMEM containing 5% fetal bovine serum plus antibiotics (DMEM5) and incubated for 1 hour at 37°C to allow virus adsorption. Following this time, 0.8ml of DMEM5 (with or without inhibitor) was added to each well and cultures were incubated at 37°C for 2-3 days. Monolayers were fixed with 10% formaldehyde solution in PBS and stained with 0.25% crystal violet in order to visualize virus plaques. Individual foci of multinucleated gian cells (plaques) were apparent using this staining procedure. ID₅₀ values were derived from plots of percent plaque reduction versus inhibitor concentration.

[5] = Human immunodeficiency virus 1, Lymphocyte, 96 h

Row | SMILES | IC50 (HIV-1 [1]; [5]) [µM] | IC50 (HIV-1 [2]; Human immunodeficiency virus 1, MT4, MT4 cells infected with HIV) [µM] | IC50 (HIV-1 [2]; MT4 cells infected with HIV) [µM] | CC50 at 120 h [3] [µM] | IC50 (HIV-1 [4]) [µM] | IC50 (HIV-1 [1]) [µM]
1 | COCc1cn([C@H]2C[C@H](F)[C@@H](CO)O2)c(=O)[nH]c1=O [2′,3′-Dideoxy-3′-fluoro-5-methoxymethyluridine] | 1.89 | 8.4 | 6.4 | > 500 | 11.9 | –
2 | CSCc1cn([C@H]2C[C@H](F)[C@@H](CO)O2)c(=O)[nH]c1=O [2′,3′-Dideoxy-3′-fluoro-5-methylthiomethyluridine] | – | – | – | > 200 | 4.2 | –
3 | CCOCc1cn([C@H]2C[C@H](F)[C@@H](CO)O2)c(=O)[nH]c1=O [2′,3′-Dideoxy-5-ethoxymethyl-3′-fluorouridine] | 1.52 | – | – | > 200 | 6.3 | 1.63
